From PubChem BioAssay (NCI)
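Exposure lasted 48 hours, with cells grown in 96-well plates and compounds tested at five concentrations. Here, GI50 denotes the concentration required for 50% inhibition of growth. TGI is the concentration that stops growth completely.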

What was measured:
Test in all cases: DTP human tumour cell line panel, 48 h
A498 renal = system: A498 renal
A549 NSCLC = system: A549 NSCLC
ACHN renal = system: ACHN renal
BT-549 breast = system: BT-549 breast
CAKI-1 renal = system: CAKI-1 renal
CCRF-CEM leukemia = system: CCRF-CEM leukemia
COLO 205 colon = system: COLO 205 colon
DU-145 prostate = system: DU-145 prostate
EKVX NSCLC = system: EKVX NSCLC
HCT-15 colon = system: HCT-15 colon
HS 578T breast = system: HS 578T breast
HT29 colon = system: HT29 colon
IGROV1 ovarian = system: IGROV1 ovarian
KM12 colon = system: KM12 colon
M14 melanoma = system: M14 melanoma
MCF7 breast = system: MCF7 breast
MDA-MB-435 = system: MDA-MB-435
NCI-H226 lung = system: NCI-H226 lung
NCI-H23 lung = system: NCI-H23 lung
NCI-H522 lung = system: NCI-H522 lung
NCI/ADR-RES ovarian = system: NCI/ADR-RES ovarian
OVCAR-3 ovarian = system: OVCAR-3 ovarian
OVCAR-5 ovarian = system: OVCAR-5 ovarian
OVCAR-8 ovarian = system: OVCAR-8 ovarian
PC-3 prostate = system: PC-3 prostate
SF-295 CNS = system: SF-295 CNS
SF-539 CNS = system: SF-539 CNS
SK-MEL-2 melanoma = system: SK-MEL-2 melanoma
SK-MEL-28 melanoma = system: SK-MEL-28 melanoma
SK-OV-3 ovarian = system: SK-OV-3 ovarian
SR leukemia = system: SR leukemia
T-47D breast = system: T-47D breast
TK-10 renal = system: TK-10 renal
UACC-257 melanoma = system: UACC-257 melanoma
UACC-62 melanoma = system: UACC-62 melanoma
UO-31 renal = system: UO-31 renal
786-0 renal = system: 786-0 renal
HCC-2998 colon = system: HCC-2998 colon
HCT-116 colon = system: HCT-116 colon
HL-60(TB) leukemia = system: HL-60(TB) leukemia
HOP-62 NSCLC = system: HOP-62 NSCLC
HOP-92 NSCLC = system: HOP-92 NSCLC
K-562 leukemia = system: K-562 leukemia
MALME-3M melanoma = system: MALME-3M melanoma
MOLT-4 leukemia = system: MOLT-4 leukemia
NCI-H460 lung = system: NCI-H460 lung
OVCAR-4 ovarian = system: OVCAR-4 ovarian
RPMI-8226 leukemia = system: RPMI-8226 leukemia
RXF 393 renal = system: RXF 393 renal
SF-268 CNS = system: SF-268 CNS
SK-MEL-5 melanoma = system: SK-MEL-5 melanoma
SN12C renal = system: SN12C renal
SNB-19 CNS = system: SNB-19 CNS
SNB-75 CNS = system: SNB-75 CNS
SW-620 colon = system: SW-620 colon
U251 CNS = system: U251 CNS

With `CCCCCCCCCCCCCCCC[N+](C)(C)Cc1ccc(F)cc1` the TGI (A498 renal) was 88.7 µM, the TGI (A549 NSCLC) was 11.3 µM and the TGI (ACHN renal) was 10.1 µM. For the same molecule, the TGI (BT-549 breast) was 8.87 µM, the TGI (CAKI-1 renal) was 15.6 µM and the TGI (CCRF-CEM leukemia) was 3.28 µM. For the same molecule, the TGI (COLO 205 colon) was 2.87 µM, the TGI (DU-145 prostate) was 20.8 µM and the TGI (EKVX NSCLC) was 6.01 µM. It also gave a TGI (HCT-15 colon) of 34.9 µM, a TGI (HS 578T breast) of 3.44 µM and a TGI (HT29 colon) of 5.78 µM. For the same molecule, the TGI (IGROV1 ovarian) was 1.57 µM, the TGI (KM12 colon) was 2.33 µM and the TGI (M14 melanoma) was 3.05 µM. For the same molecule, the TGI (MCF7 breast) was 3.67 µM, the TGI (MDA-MB-435) was 3.99 µM and the TGI (NCI-H226 lung) was 9.58 µM. For the same molecule, the TGI (NCI-H23 lung) was 14.2 µM, the TGI (NCI-H522 lung) was 2.03 µM and the TGI (NCI/ADR-RES ovarian) was 57.1 µM. The TGI (OVCAR-3 ovarian) was 5.49 µM, the TGI (OVCAR-5 ovarian) was 3.79 µM and the TGI (OVCAR-8 ovarian) was 3.11 µM. It also gave a TGI (PC-3 prostate) of 2.51 µM, a TGI (SF-295 CNS) of 7.69 µM and a TGI (SF-539 CNS) of 2.31 µM. It also gave a TGI (SK-MEL-2 melanoma) of 2.82 µM, a TGI (SK-MEL-28 melanoma) of 15.1 µM and a TGI (SK-OV-3 ovarian) of 6.68 µM. The TGI (SR leukemia) was 4.23 µM, the TGI (T-47D breast) was 25.9 µM and the TGI (TK-10 renal) was 4.8 µM. It also gave a TGI (UACC-257 melanoma) of 4.92 µM, a TGI (UACC-62 melanoma) of 4.45 µM and a TGI (UO-31 renal) of 31.1 µM.
In the case of `N=C(N)c1ccc(-c2ccc(-c3cccs3)o2)cc1`, the GI50 (786-0 renal) is reported as 1.89 µM, the TGI (786-0 renal) is reported as 3.44 µM and the GI50 (A498 renal) is reported as 1.8 µM. For the same molecule, the TGI (A498 renal) was 3.86 µM, the GI50 (ACHN renal) was 1.86 µM and the TGI (ACHN renal) was 3.51 µM. For the same molecule, the GI50 (BT-549 breast) was 2.05 µM, the TGI (BT-549 breast) was 4.02 µM and the GI50 (CAKI-1 renal) was 2.14 µM. The TGI (CAKI-1 renal) was 5.2 µM, the GI50 (CCRF-CEM leukemia) was 2.33 µM and the TGI (CCRF-CEM leukemia) was 5.9 µM. It also gave a GI50 (COLO 205 colon) of 1.91 µM, a TGI (COLO 205 colon) of 3.49 µM and a GI50 (DU-145 prostate) of 2.91 µM. The TGI (DU-145 prostate) was 7.31 µM, the GI50 (HCC-2998 colon) was 1.87 µM and the TGI (HCC-2998 colon) was 3.41 µM. It also gave a GI50 (HCT-116 colon) of 1.83 µM, a TGI (HCT-116 colon) of 3.23 µM and a GI50 (HCT-15 colon) of 1.86 µM. It also gave a TGI (HCT-15 colon) of 3.8 µM, a GI50 (HL-60(TB) leukemia) of 1.82 µM and a TGI (HL-60(TB) leukemia) of 4.11 µM. The GI50 (HOP-62 NSCLC) was 2.04 µM, the TGI (HOP-62 NSCLC) was 4.32 µM and the GI50 (HOP-92 NSCLC) was 1.4 µM. The TGI (HOP-92 NSCLC) was 3.1 µM, the GI50 (HS 578T breast) was 2.14 µM and the TGI (HS 578T breast) was 5.25 µM. It also gave a GI50 (HT29 colon) of 1.89 µM, a TGI (HT29 colon) of 3.7 µM and a GI50 (IGROV1 ovarian) of 1.92 µM. For the same molecule, the TGI (IGROV1 ovarian) was 3.83 µM, the GI50 (K-562 leukemia) was 2.27 µM and the TGI (K-562 leukemia) was 5.72 µM. It also gave a GI50 (M14 melanoma) of 1.9 µM, a TGI (M14 melanoma) of 3.39 µM and a GI50 (MALME-3M melanoma) of 1.91 µM. The TGI (MALME-3M melanoma) was 3.42 µM, the GI50 (MCF7 breast) was 1.69 µM and the TGI (MCF7 breast) was 3.29 µM. The GI50 (MDA-MB-435) was 1.76 µM, the TGI (MDA-MB-435) was 3.39 µM and the GI50 (MOLT-4 leukemia) was 2.34 µM. For the same molecule, the TGI (MOLT-4 leukemia) was 4.89 µM, the GI50 (NCI-H226 lung) was 2.07 µM and the TGI (NCI-H226 lung) was 5.13 µM. For the same molecule, the GI50 (NCI-H23 lung) was 3.63 µM, the TGI (NCI-H23 lung) was 13.2 µM and the GI50 (NCI-H460 lung) was 1.79 µM. For the same molecule, the TGI (NCI-H460 lung) was 3.41 µM, the GI50 (NCI-H522 lung) was 2.01 µM and the TGI (NCI-H522 lung) was 3.89 µM. It also gave a GI50 (NCI/ADR-RES ovarian) of 2.88 µM, a TGI (NCI/ADR-RES ovarian) of 7.63 µM and a GI50 (OVCAR-3 ovarian) of 2.25 µM. The TGI (OVCAR-3 ovarian) was 4.92 µM, the GI50 (OVCAR-4 ovarian) was 2.35 µM and the TGI (OVCAR-4 ovarian) was 5.72 µM. For the same molecule, the GI50 (OVCAR-5 ovarian) was 2.02 µM, the TGI (OVCAR-5 ovarian) was 6.2 µM and the GI50 (PC-3 prostate) was 2.13 µM. For the same molecule, the TGI (PC-3 prostate) was 5.56 µM, the GI50 (RPMI-8226 leukemia) was 2.12 µM and the TGI (RPMI-8226 leukemia) was 4.98 µM. For the same molecule, the GI50 (RXF 393 renal) was 1.69 µM, the TGI (RXF 393 renal) was 3.46 µM and the GI50 (SF-268 CNS) was 2.19 µM. For the same molecule, the TGI (SF-268 CNS) was 5.17 µM, the GI50 (SF-539 CNS) was 1.68 µM and the TGI (SF-539 CNS) was 3.14 µM. It also gave a GI50 (SK-MEL-2 melanoma) of 2.19 µM, a TGI (SK-MEL-2 melanoma) of 4.04 µM and a GI50 (SK-MEL-28 melanoma) of 1.71 µM. It also gave a TGI (SK-MEL-28 melanoma) of 3.11 µM, a GI50 (SK-MEL-5 melanoma) of 1.65 µM and a TGI (SK-MEL-5 melanoma) of 3.02 µM. The GI50 (SK-OV-3 ovarian) was 2.4 µM, the TGI (SK-OV-3 ovarian) was 5.77 µM and the GI50 (SN12C renal) was 1.97 µM. It also gave a TGI (SN12C renal) of 4.38 µM, a GI50 (SNB-19 CNS) of 2.43 µM and a TGI (SNB-19 CNS) of 7.81 µM. It also gave a GI50 (SNB-75 CNS) of 1.71 µM, a TGI (SNB-75 CNS) of 3.5 µM and a GI50 (SR leukemia) of 2.99 µM. For the same molecule, the TGI (SR leukemia) was 8.54 µM, the GI50 (SW-620 colon) was 1.77 µM and the TGI (SW-620 colon) was 3.37 µM. For the same molecule, the GI50 (T-47D breast) was 2.17 µM, the TGI (T-47D breast) was 4.88 µM and the GI50 (TK-10 renal) was 1.95 µM. It also gave a TGI (TK-10 renal) of 3.44 µM, a GI50 (U251 CNS) of 1.76 µM and a TGI (U251 CNS) of 3.37 µM. The GI50 (UACC-257 melanoma) was 1.98 µM, the TGI (UACC-257 melanoma) was 3.63 µM and the GI50 (UACC-62 melanoma) was 1.75 µM. It also gave a TGI (UACC-62 melanoma) of 3.35 µM, a GI50 (UO-31 renal) of 1.9 µM and a TGI (UO-31 renal) of 3.74 µM.
